Reference: PubChem BioAssay AID1259407 (Chemical Carcinogenesis Research Information System (CCRIS), 2018)
Active and inactive are the calls of the source. The rule behind the calls is not given here.

Test system: CCRIS mutagenicity, Ames/micronucleus/aberration tests
Test: CCRIS mutagenicity studies
[1] = Test System: AMES SALMONELLA TYPHIMURIUM, Strain/Indicator: TA98, Metabolic Activation: NONE, Method: PREINCUBATION
[2] = Test System: AMES SALMONELLA TYPHIMURIUM, Strain/Indicator: TA100, Metabolic Activation: NONE, Method: PREINCUBATION
[3] = Test System: AMES SALMONELLA TYPHIMURIUM, Strain/Indicator: TA1535, Metabolic Activation: NONE, Method: PREINCUBATION
[4] = Test System: AMES SALMONELLA TYPHIMURIUM, Strain/Indicator: TA1537, Metabolic Activation: NONE, Method: PREINCUBATION
[5] = Test System: AMES SALMONELLA TYPHIMURIUM, Strain/Indicator: TA100, Metabolic Activation: RAT, LIVER, S-9, AROCLOR 1254, Method: STANDARD PLATE
[6] = Test System: AMES SALMONELLA TYPHIMURIUM, Strain/Indicator: TA100, Metabolic Activation: NONE, Method: STANDARD PLATE
[7] = Test System: AMES SALMONELLA TYPHIMURIUM, Strain/Indicator: TA102, Metabolic Activation: NONE, Method: STANDARD PLATE
[8] = Test System: AMES SALMONELLA TYPHIMURIUM, Strain/Indicator: TA98, Metabolic Activation: NONE, Method: STANDARD PLATE
[9] = Test System: AMES SALMONELLA TYPHIMURIUM, Strain/Indicator: TA98, Metabolic Activation: RAT, LIVER, S-9, AROCLOR 1254, Method: STANDARD PLATE
[10] = Test System: AMES SALMONELLA TYPHIMURIUM, Strain/Indicator: TA1535, Metabolic Activation: NONE, Method: STANDARD PLATE
[11] = Test System: AMES SALMONELLA TYPHIMURIUM, Strain/Indicator: TA1537, Metabolic Activation: NONE, Method: STANDARD PLATE

Measured: mutagenic call

CNCc1ccc(CSCCNC(=NCC(O)c2ccc(O)cc2)NS(C)(=O)=O)o1 (configuration not stated)
inactive: [1] inactive; negative | Test System: AMES SALMONELLA TYPHIMURIUM, Strain/Indicator: TA98, Metabolic Activation: RAT LIVER S-9, PHENOBARBITAL AND 5,6-BENZOFLAVONE, Method: PREINCUBATION inactive; negative | [2] inactive; negative | Test System: AMES SALMONELLA TYPHIMURIUM, Strain/Indicator: TA100, Metabolic Activation: RAT LIVER S-9, PHENOBARBITAL AND 5,6-BENZOFLAVONE, Method: PREINCUBATION inactive; negative | [3] inactive; negative | Test System: AMES SALMONELLA TYPHIMURIUM, Strain/Indicator: TA1535, Metabolic Activation: RAT LIVER S-9, PHENOBARBITAL AND 5,6-BENZOFLAVONE, Method: PREINCUBATION inactive; negative | [4] inactive; negative | Test System: AMES SALMONELLA TYPHIMURIUM, Strain/Indicator: TA1537, Metabolic Activation: RAT LIVER S-9, PHENOBARBITAL AND 5,6-BENZOFLAVONE, Method: PREINCUBATION inactive; negative | Test System: E.COLI, Strain/Indicator: WP2 UVRA, Metabolic Activation: NONE, Method: PREINCUBATION inactive; negative | Test System: E.COLI, Strain/Indicator: WP2 UVRA, Metabolic Activation: RAT LIVER S-9, PHENOBARBITAL AND 5,6-BENZOFLAVONE, Method: PREINCUBATION inactive; negative

C=CC(O)c1ccc2c(c1)OCO2 (configuration not stated)
active: Test System: UDS HUMAN FIBROBLASTS, Strain/Indicator: THY INCORP (NON-S-PHASE), Metabolic Activation: NONE, Method: AUTORADIOGRAPHY active; positive

CNC(=O)C(C)SCCSP(=O)(OC)OC (configuration not stated)
active: Test System: E. COLI, Strain/Indicator: WP2, Metabolic Activation: NONE, Method: STANDARD PLATE active; positive | Test System: E. COLI, Strain/Indicator: WP2 UVRA, Metabolic Activation: NONE, Method: STANDARD PLATE active; positive

CCCC(=O)OC1CCCCC1
inactive: Test System: AMES SALMONELLA TYPHIMURIUM, Strain/Indicator: TA97, Metabolic Activation: NONE, Method: PREINCUBATION inactive; negative | Test System: AMES SALMONELLA TYPHIMURIUM, Strain/Indicator: TA97, Metabolic Activation: RAT, LIVER, S-9, AROCLOR 1254, Method: PREINCUBATION inactive; negative | Test System: AMES SALMONELLA TYPHIMURIUM, Strain/Indicator: TA102, Metabolic Activation: NONE, Method: PREINCUBATION inactive; negative | Test System: AMES SALMONELLA TYPHIMURIUM, Strain/Indicator: TA102, Metabolic Activation: RAT, LIVER, S-9, AROCLOR 1254, Method: PREINCUBATION inactive; negative

C1CNCCN1
inactive: Test System: AMES SALMONELLA TYPHIMURIUM, Strain/Indicator: TA98, Metabolic Activation: HAMSTER, LIVER, S-9, AROCLOR 1254, Method: PREINCUBATION inactive; negative | [1] inactive; negative | Test System: AMES SALMONELLA TYPHIMURIUM, Strain/Indicator: TA98, Metabolic Activation: RAT, LIVER, S-9, AROCLOR 1254, Method: PREINCUBATION inactive; negative | Test System: AMES SALMONELLA TYPHIMURIUM, Strain/Indicator: TA98, Metabolic Activation: RAT, LIVER, S-9, PCB, Method: PREINCUBATION inactive; negative | Test System: AMES SALMONELLA TYPHIMURIUM, Strain/Indicator: TA100, Metabolic Activation: HAMSTER, LIVER, S-9, AROCLOR 1254, Method: PREINCUBATION inactive; negative | [2] inactive; negative | Test System: AMES SALMONELLA TYPHIMURIUM, Strain/Indicator: TA100, Metabolic Activation: RAT, LIVER, S-9, AROCLOR 1254, Method: PREINCUBATION inactive; negative | Test System: AMES SALMONELLA TYPHIMURIUM, Strain/Indicator: TA100, Metabolic Activation: RAT, LIVER, S-9, PCB, Method: PREINCUBATION inactive; negative | Test System: AMES SALMONELLA TYPHIMURIUM, Strain/Indicator: TA1535, Metabolic Activation: HAMSTER, LIVER, S-9, AROCLOR 1254, Method: PREINCUBATION inactive; negative | [3] inactive; negative | Test System: AMES SALMONELLA TYPHIMURIUM, Strain/Indicator: TA1535, Metabolic Activation: RAT, LIVER, S-9, AROCLOR 1254, Method: PREINCUBATION inactive; negative | Test System: AMES SALMONELLA TYPHIMURIUM, Strain/Indicator: TA1537, Metabolic Activation: HAMSTER, LIVER, S-9, AROCLOR 1254, Method: PREINCUBATION inactive; negative | [4] inactive; negative | Test System: AMES SALMONELLA TYPHIMURIUM, Strain/Indicator: TA1537, Metabolic Activation: RAT, LIVER, S-9, AROCLOR 1254, Method: PREINCUBATION inactive; negative

C=CCn1cc2c3c(cccc31)[C@H]1C=C(CO)CN(C)[C@@H]1C2
active: [5] active; positive

COO
inactive: [6] inactive; negative
active: [7] active; positive

COc1ccc(C=CC(=O)c2ccccc2)cc1
inactive: [8] inactive; negative | [9] inactive; negative | [6] inactive; negative | [5] inactive; negative

CC(C)(Br)C(=O)O
active: End Point: IN VITRO CHROMOSOMAL ABERRATIONS, Test System: CHL CELLS, Metabolic Activation: NONE active; positive (structural changes) | End Point: IN VITRO CHROMOSOMAL ABERRATIONS, Test System: CHL CELLS, Metabolic Activation: RAT, LIVER, S-9, SODIUM PHENOBARBITAL AND 5,6-BENZOFLAVONE active; positive (structural changes)

CC1(C)CC[C@]2(C(=O)O)CC[C@]3(C)C(=CC[C@@H]4[C@@]5(C)C[C@H](O)[C@H](O[C@@H]6O[C@H](CO)[C@@H](O)[C@H](O)[C@H]6O)C(C)(C(=O)O)C5CC[C@]43C)[C@H]2C1 (some centres not stated)
inactive: Test System: AMES SALMONELLA TYPHIMURIUM, Strain/Indicator: TA97, Metabolic Activation: NONE, Method: STANDARD PLATE inactive; negative | Test System: AMES SALMONELLA TYPHIMURIUM, Strain/Indicator: TA97, Metabolic Activation: RAT, LIVER, S-9, AROCLOR 1254, Method: STANDARD PLATE inactive; negative | [8] inactive; negative | [9] inactive; negative | [6] inactive; negative | [5] inactive; negative | [7] inactive; negative | Test System: AMES SALMONELLA TYPHIMURIUM, Strain/Indicator: TA102, Metabolic Activation: RAT, LIVER, S-9, AROCLOR 1254, Method: STANDARD PLATE inactive; negative

C[n+]1c2n(c(=O)c3ccccc31)CCc1c-2[nH]c2ccccc12
inactive: [8] inactive; negative | Test System: AMES SALMONELLA TYPHIMURIUM, Strain/Indicator: TA98, Metabolic Activation: RAT LIVER S-9, AROCLOR 1254 (10%), Method: STANDARD PLATE inactive; negative | [6] inactive; negative | Test System: AMES SALMONELLA TYPHIMURIUM, Strain/Indicator: TA100, Metabolic Activation: RAT LIVER S-9, AROCLOR 1254 (10%), Method: STANDARD PLATE inactive; negative | [10] inactive; negative | Test System: AMES SALMONELLA TYPHIMURIUM, Strain/Indicator: TA1535, Metabolic Activation: RAT LIVER S-9, AROCLOR 1254 (10%), Method: STANDARD PLATE inactive; negative | [11] inactive; negative | Test System: AMES SALMONELLA TYPHIMURIUM, Strain/Indicator: TA1537, Metabolic Activation: RAT LIVER S-9, AROCLOR 1254 (10%), Method: STANDARD PLATE inactive; negative

ClCCNCCCNc1c2ccccc2nc2c1ccc1cccnc12
active: [8] active; positive | [6] active; positive | Test System: AMES SALMONELLA TYPHIMURIUM, Strain/Indicator: TA1536, Metabolic Activation: NONE, Method: STANDARD PLATE active; positive | [11] active; positive | Test System: AMES SALMONELLA TYPHIMURIUM, Strain/Indicator: TA1538, Metabolic Activation: NONE, Method: STANDARD PLATE active; positive
inactive: [10] inactive; negative
